Results published in patent US11312758B2, “Peptides with vasodilatory and/or diuretic functions” (National University of Singapore, priority 2016, dated 2022).
Values joined by “and” are separate entries in the source; they are usually repeats but may differ in a detail not shown here. Equal entries are not always repeated. Positions of bridges follow the written chain, without caps; N, C: chain ends. Residues, ends and D or L forms follow the SMILES beside them.

Columns and labels:
[1] = test system: anesthetized male SD rats; experiment: In-vivo activity assay: peptide infusion in anesthetized rats (MAP, HR, PP, urine flow); parameters: species or system rat
Description: Male Sprague-Dawley (SD) rats (220-280 g) were obtained from Invivos, Singapore. Animals were acclimatized in the Animal Holding unit, NUS for 3 days before the experiment. The experiments were conducted under the guidance and approval of Institutional Animal Care and Use Committee, NUS (041/12).
The experiments were performed as described in Sridharan et al., [Biochem J 469 (2): 255-66 (2015)]. In brief, animals were anesthetized with sodium pentobarbital (60-70 mg/kg) and catheters were inserted in femoral artery, vein and urinary bladder. The body temperature of the animals was maintained using a thermostatic heat pad at 37° C. Continuous infusions (2 ml/h) of 0.2% BSA saline (with or without peptide) was administered through the femoral vein while a pressure transducer attached to the femoral artery recorded on-line changes in mean arterial pressure (MAP), heart rate (HR) and pulse pressure (PP). Urine was collected and the volume was measured after every 10 min. Experiments encompassed control (2×10 min), experimental (1×10 min) and recovery (4×10 min) periods. All animals were euthanized at the end of the experiment in carbon-di-oxide chambers.

rat NPR-A [2] = molecular target: T1, rat NPR-A (Rattus norvegicus, UniProt P18910); experiment: Time-chase study of cGMP accumulation (NPR-A activation kinetics) at EC50 concentration of peptide; format: cell-based
T1 construct: expressed in transfected cells; host or cells: CHO-K1
T1 sequence (P18910 29-1057): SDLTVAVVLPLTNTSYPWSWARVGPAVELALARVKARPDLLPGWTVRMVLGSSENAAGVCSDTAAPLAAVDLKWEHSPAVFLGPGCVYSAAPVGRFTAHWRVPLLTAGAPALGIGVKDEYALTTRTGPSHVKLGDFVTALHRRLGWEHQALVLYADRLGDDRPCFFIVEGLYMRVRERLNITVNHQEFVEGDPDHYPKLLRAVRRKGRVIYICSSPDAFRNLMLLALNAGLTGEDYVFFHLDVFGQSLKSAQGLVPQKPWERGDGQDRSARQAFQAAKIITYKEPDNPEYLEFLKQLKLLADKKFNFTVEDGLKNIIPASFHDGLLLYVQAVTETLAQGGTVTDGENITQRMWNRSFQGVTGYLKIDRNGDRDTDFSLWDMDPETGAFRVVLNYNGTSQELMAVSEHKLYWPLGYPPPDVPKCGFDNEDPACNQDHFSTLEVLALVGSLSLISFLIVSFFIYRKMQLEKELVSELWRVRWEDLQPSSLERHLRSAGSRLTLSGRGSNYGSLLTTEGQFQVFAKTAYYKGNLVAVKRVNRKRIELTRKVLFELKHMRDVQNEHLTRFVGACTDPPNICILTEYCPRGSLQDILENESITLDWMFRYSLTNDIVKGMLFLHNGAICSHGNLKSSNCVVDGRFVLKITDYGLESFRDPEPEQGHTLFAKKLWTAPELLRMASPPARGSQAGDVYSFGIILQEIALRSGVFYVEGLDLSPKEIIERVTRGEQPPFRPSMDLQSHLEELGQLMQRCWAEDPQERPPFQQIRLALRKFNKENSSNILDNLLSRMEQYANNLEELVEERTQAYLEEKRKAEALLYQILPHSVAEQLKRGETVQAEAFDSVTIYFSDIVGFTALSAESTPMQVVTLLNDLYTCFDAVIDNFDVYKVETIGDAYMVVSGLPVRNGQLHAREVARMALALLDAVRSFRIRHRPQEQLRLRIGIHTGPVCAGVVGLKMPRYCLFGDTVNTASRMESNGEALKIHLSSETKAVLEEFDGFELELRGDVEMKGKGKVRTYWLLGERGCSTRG
Description: (§1) The experiments were performed as described in Sridharan et al., [Biochem J 469 (2): 255-66 (2015)]. Dulbecco's modified Eagle's medium supplemented with 10% fetal bovine serum, 100 U/ml penicillin and 100 μg/ml streptomycin and 2 mM glutamine was used to grow CHO-K1 cells in a humidified incubator at 37° C. with 5% CO2. The cells were maintained by sub-culturing using 0.5% trypsin every three days. Cells (1×10^5) were seeded per well in 24-well plate and grown for 16 h. Cells in each well were transfected with 0.8 μg of plasmid encoding rat NPR-A using 2 μl of Lipofectamine™ 2000 transfection reagent. Cells were treated with the peptides 24 h after transfection.
Time-chase study was performed by treating the cells with EC50 concentration of the peptides. The reactions were terminated at the indicated time-points (0, 2, 5, 10, 20 and 30 min) by treating the cells with 0.1 N HCl. The cGMP concentration in the cell lysate was measured using cGMP ELISA kit (Enzo life sciences).

rat NPR-A [3] = molecular target: T1, rat NPR-A; experiment: Whole cell cGMP assay, 30 min end-point dose-response in CHO-K1 cells transiently expressing NPR-A; format: cell-based
Description: as §1
NPR-A transfected CHO-K1 cells were treated with varying concentrations of peptides (10 nM to 10 μM dissolved in basal media containing 0.5 mM IBMX) for 30 min. The end-point accumulation of cGMP was measured after cell-lysis with 200 μl of 0.1 N HCl using Enzo life sciences cGMP ELISA kit (manufacturer's protocol).

CC[C@H](C)[C@@H]1NC(=O)[C@H](CC(=O)O)NC(=O)[C@H](CO)NC(=O)[C@H]([C@@H](C)O)NC(=O)[C@H](Cc2c[nH]cn2)NC(=O)[C@H](CO)NC(=O)[C@H]([C@@H](C)CC)NC(=O)[C@H](CCCNC(=N)N)NC(=O)[C@H](CC(=O)O)NC(=O)[C@H]([C@@H](C)CC)NC(=O)[C@H](CCCNC(=N)N)NC(=O)[C@H](CCCNC(=N)N)NC(=O)CNC(=O)[C@H](Cc2ccccc2)NC(=O)[C@@H](NC(=O)[C@H](CO)NC(=O)[C@@H](NC(=O)[C@H](CC(C)C)NC(=O)[C@H](CC(C)C)NC(=O)CN)[C@@H](C)CC)CSSC[C@@H](C(=O)N[C@@H](CCCNC(=N)N)C(=O)N[C@@H](Cc2c[nH]cn2)C(=O)O)NC(=O)CNC1=O [^GRDK-Ring] (H-GLLISCFGRRIDRISHTSDIGCRH-OH; disulfide 6-22; N-terminus and C-terminus assumed)
HR Rate of change per unit change in MAP ([1]; 2 nmol/kg/min infusion): 2.82
PP Rate of change per unit change in MAP ([1]; 2 nmol/kg/min infusion): 0.7
Heart rate Peak response ([1]; 2.0 nmol/kg/min infusion): −44.8±20.2 BPM and −44.8 ± 20.1 BPM
Heart rate Peak time ([1]; 2.0 nmol/kg/min infusion): 30 min
Mean arterial pressure Peak response ([1]; 2.0 nmol/kg/min infusion): −11.3 ± 4.3 mmHg
Mean arterial pressure Peak time ([1]; 2.0 nmol/kg/min infusion): 30 min
Pulse pressure Peak time ([1]; 2.0 nmol/kg/min infusion): 20 min
Urine flow rate Peak response ([1]; 2.0 nmol/kg/min infusion): <2 µL/min
Rate of generation of cGMP, Ratio compared ANP (rat NPR-A [2]): 70.5
Rate of generation of cGMP, Ratio compared wild type NPs (rat NPR-A [2]): 5.0
Rate of generation of cGMP (rat NPR-A [2]; EC50 concentration of peptide): 0.113 pmol cGMP/pmol peptide
rate of generation of cGMP compared to K-Ring (rat NPR-A [2]; EC50 concentration of peptide): slightly increased rate of cGMP production
time of peak / maximum accumulation of cGMP (rat NPR-A [2]; EC50 concentration of peptide): 10 min
NPR-A activation potency, Ratio compared ANP (rat NPR-A [3]): 2.9
fold higher potency compared to K-Ring (rat NPR-A [3]; cGMP response): 5 fold
NPR-A activation potency, Ratio compared wild type NPs (rat NPR-A [3]; negative = more potent than wild type): −4.8
